# Experimental data taken from publication PMC5647335, “Controlling the bioactivity of a peptide hormone in vivo by reversible self-assembly” (Nature Communications, 2017).
# Tested on: CHO-hGLP-1R cells
# Type: cell-based, Chinese hamster
# Conditions: 48 h treatment, resazurin 5 h, fluorescence 590 nm; Oxm concentrations up to 1000-fold above the EC50; three independent experiments
# Protocol: CHO-hGLP-1R cells in growth medium (DMEM, 10%FBS Sigma-Aldrich) were plated at 10,000 cells per well in 96-well black clear-bottom poly-D-lysine-coated microtiter plates (Corning, USA). […] Fluorescence emission was measured at 590 nm (560 nm excitation).
structure (smiles),measurement,value
Cn1cc(C2=C(c3cn(CCCSC(=N)N)c4ccccc34)C(=O)NC2=O)c2ccccc21 [Ro-318220],in vitro cytotoxicity (cell viability),expected curves of concentration vs. loss of cell viability
CN[C@@H]1C[C@H]2O[C@@](C)([C@@H]1OC)n1c3ccccc3c3c4c(c5c6ccccc6n2c5c31)C(=O)NC4 [staurosporine],in vitro cytotoxicity (cell viability),expected curves of concentration vs. loss of cell viability
